Entries after “also recorded” stand apart in the source; their conditions may differ.
Key:
[1] = target: T1, P. falciparum bc1 complex cytochrome c reductase (Pfbc1) (Plasmodium falciparum, UniProt Q02768); experiment: Pfbc1 native assay (cytochrome c reduction by parasite extract); type: biochemical; conditions: atovaquone 1 μM positive control, X ± S.D., N = 4
T1 construct: Parasite extract was then prepared by disruption with a sonicating probe; endogenous in cells; host or cells: P. falciparum strain 3D7 blood-stage culture, sonicated parasite extract
T1 sequence (Q02768 1-376): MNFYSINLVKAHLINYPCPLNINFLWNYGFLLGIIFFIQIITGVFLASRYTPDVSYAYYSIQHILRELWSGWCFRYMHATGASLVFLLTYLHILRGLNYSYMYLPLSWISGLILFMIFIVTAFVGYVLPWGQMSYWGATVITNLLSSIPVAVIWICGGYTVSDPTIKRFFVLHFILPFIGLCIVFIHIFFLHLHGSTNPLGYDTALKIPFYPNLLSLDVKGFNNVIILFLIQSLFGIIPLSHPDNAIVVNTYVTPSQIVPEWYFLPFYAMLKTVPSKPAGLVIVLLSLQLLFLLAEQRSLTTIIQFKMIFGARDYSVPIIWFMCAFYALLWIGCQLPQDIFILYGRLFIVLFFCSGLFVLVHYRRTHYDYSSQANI
Protocol: P. falciparum 3D7 strain were obtained from the Liverpool School of Tropical Medicine. Protease cocktail inhibitor was obtained from Roche. Bradford protein assay dye reagent was obtained from Bio-Rad. All other reagents were obtained from Sigma-Aldrich. Decylubiquinol was produced as per Fisher et al. ([2009]). In brief, 25 mg of decylubiquinone were dissolved in 400 μL of nitrogen-saturated hexane. An equal volume of aqueous 1 M sodium dithionite was added, and the mixture vortexed until colorless. The organic phase containing the decylubiquinol was collected, the solvent was evaporated under N2 and the decylubiquinol finally dissolved in 100 μL of 96% ethanol (acidified with 10 mM HCl). Concentrations of decylubiquinol was determined spectrophotometrically on a Cary 300 Bio UV/visible spectrophotometer (Varian, UK) from absolute spectra, using ε288−−320 = 8.1 mM^−1.cm^−1. Decylubiquinol was stored at −80°C and used within 2 weeks. […]
The protocol for the preparation of parasite extract was adapted from Fisher et al. ([2009]). […] The protein concentration of the parasite extract was determined by Bradford protein assay (Bio-Rad).
P. falciparum bc1 complex cytochrome c reductase (Pfbc1) activity was measured by monitoring cytochrome c reduction at 550 vs. 542 nm using a Cary 300 Bio UV-Visible Spectrophotometer (Varian, UK), using a protocol adapted from Fisher et al. ([2009]). […]

[2] = test system: T. gondii (Prugneaud strain expressing luciferase) tachyzoites; experiment: Type II Prugneaud luciferase tachyzoite infection of Balb/C mice, IVIS and brain cysts; type: in vivo, Toxoplasma gondii
Protocol: Balb/C mice were infected intraperitoneally (IP) with 20 × 10^3 T. gondii (Prugneaud strain expressing luciferase) tachyzoites. Treatment began 2 h later with JAG21 (5 mg/kg) which was dissolved in DMSO, administered IP in a total volume of 0.05 mL. Mice were imaged every second day starting on day 4 post infection using an IVIS Spectrum (Caliper Life Sciences) for […], with medium binning, 20 min post injection with 150 mg/kg of D-luciferin potassium salt solution.
Brain cysts were searched for in paraffin imbedded tissue of the surviving Prugneaud strain infected treated Balb/C mice in the IVIS study, 30 days after infection which was 16 days after treatment had been discontinued. All treated mice had survived. There were no surviving untreated mice in those experiments.

[3] = test system: T. gondii Me49 strain; experiment: Established chronic Me49 infection of Balb/C mice, brain cysts; type: in vivo, Toxoplasma gondii; conditions: treatment begun day 30 after infection, IP daily for 14 days
Protocol: In separate experiments, Balb/C mice were infected IP with 20 × 10^3 T. gondii Me49 strain tachyzoites. In these separate studies of mice with established chronic infection, after 30 days, IP treatment with JAG21 was begun each day for 14 days. JAG21 was dissolved in DMSO and administered IP in a total volume of 0.05 mL. In experiments when tafenoquine was administered alone or with JAG21 in some groups 3 mg/kg tafenoquine was administered once on day−1 from when JAG21 treatment was initiated. Cysts in brain were quantitated on day […], 16 days after discontinuing JAG21. Immunoperoxidase staining was performed. Parasite burden was quantitated in two ways. The first was using a positive pixel count algorithm of Aperio ImageScope software. Positive pixels were normalized to tissue area (mm^2). Briefly, automated quantitation was done by counting positive pixels per square area. The entire brain in one section was scanned for each mouse. The Cyst burden was quantitated as units of positive pixels per mm^2. The average ± S.E.M. numbers of mm^2 per slide quantitated was 30.2±1.6 square mm per mouse for this quantification. Each highpower field of view shown in Figure 5C is ~0.02 mm^2 per field of view. Cysts on each slide for each condition in two biological replicate experiments were also quantitated by 2 separate observers independently and results compared with automated counting, separately.

Cc1[nH]c2c(c(=O)c1-c1ccc(Oc3ccc(OC(F)(F)F)cc3)cc1)CCCC2 [JAG21, 2-Methyl-3-(4-(4-(Trifluoromethoxy)Phenoxy)Phenyl)-5,6,7,8-Tetrahydroquinolin-4-One]
inhibition at 1 µM [1]: 86.4 ± 3.2%
luciferase expressing parasites by IVIS ([2]; 5 mg/kg/day IP): eliminates leuciferase expressing parasites
survival of infected mice ([2]; 5 mg/kg/day IP for 14 days): 100%
cysts in brains ([2]; treated first 14 days with 5 mg/kg/day IP, 5 mg/kg/day): No cysts were found
Me49 brain cysts [3]: marked, statistically significant reduction; also recorded: markedly reduce

Reference: article PMC7311950, “Potent Tetrahydroquinolone Eliminates Apicomplexan Parasites” (Frontiers in Cellular and Infection Microbiology, 2020)
